Experimental data from US20240366524A1, “COMPOSITION AND METHOD FOR TREATING OR PREVENTING INFECTIONS” (CHITOGEL LIMITED, priority 2021, published 2024).
Entries after “also recorded” stand apart in the source; their conditions may differ.

Columns and labels:
[1] = tested on: S. epidermidis; assay: Planktonic growth of nasal clinical isolates (OD 595 nm, 24 h); type: cell-based, Staphylococcus epidermidis
Protocol: (§1) The effect of glycerol on bacterial growth was determined by analysis of nasal bacterial isolates from subjects participating in the trial described in Example 3. The bacterial isolates were cultured for 24 hours in Nutrient Broth (NB) and Brain-Heart Infusion (BHI) which further contained glycerol in an amount of either 20% v/v, or 40% v/v, or 0% glycerol (control).
(§2) A total of 22 nasal clinical isolates including C. accolens (n=4), C. propinquum(n=3), C. pseudodiptheriticum (n=3), S. epidermidis (n=4), S. aureus (n=4) and P. aeruginosa (n=4) were used in this experiment. Prior to starting experiments, isolates were grown in tryptic soya agar (TSA) and incubated at 37° C. under aerobic conditions for 24 hours, except for C. accolens which was incubated for 48 hours.
(§3) Glycerol at 20% was prepared by dilution in nutrient broth (NB) media. Glycerol treatments at 20% concentrations were prepared in a 96-well microtitration plate containing 50 μL NB. A single colony of bacterial isolates such as C. accolens, C. propinquum, C. pseudodiptheriticum, S. epidermidis, S. aureus and P. aeruginosa from overnight cultures was suspended with 0.9% saline (aqueous NaCl) to McFarland standard of 0.5 and diluted 1:100 in NB growth media. Next, 50 μL of the diluted bacterial suspension was then added to the treatments in each well and incubated aerobically for 24 hours at 37° C. A negative control (media without bacteria and treatment) and untreated growth control (media with bacteria but no treatment) were used in this assay. After incubation, the planktonic bacterial growth was determined by measuring the optical density (OD) at 595 nm using microplate absorbance reader (iMark™, BIO-RAD). For each bacterial strain, six replicate experiments were performed to assess bacterial growth.

[2] = tested on: S. aureus; assay: Cellulose disk on nutrient agar survival test (Example 6); type: cell-based; settings: 48 h aerobic
Text: (§4) The growth of S. aureus and P. aeruginosa in the presence of glycerol, chitosan-dextran polymer, or a combination of glycerol and chitosan-dextran polymer, was investigated according to the following methodology: • (A) Cellulose disks (approximately 1 cm in diameter) pre-soaked in S. aureus or P. aeruginosa cultures were placed on the surface of sterile nutrient agar plates. A test substance was placed on top of the soaked disks to allow contact with both the nutrient agar and a test substance. An untreated control agar plate contained only the soaked cellulose disk, with no test substance applied. The test substances were as described in Example 5, namely: (1) 20% v/v glycerol in water; (2) CS-DA-GLY; and (3) CS-DA. All test and control cellulose disk plates were incubated for 48±1 hours at conditions appropriate for each microorganism (e.g. aerobic conditions for S. aureus and P. aeruginosa, and anaerobic conditions for C. acnes). Following incubation, the cellulose disks were each aseptically removed from the agar surface and the microorganism contents of the cellulose disks were individually extracted using sterile phosphate-buffered saline solution. Each of the resulting microorganism suspensions were serially diluted 1:10 in sterile phosphate-buffered saline solution and 1.000 mL of the appropriate dilutions were plated in singlet to sterile growth media appropriate for the target test microorganism. Following incubation for 72 hours 40 minutes at conditions appropriate for each microorganism, the surviving test microorganisms were recorded for each test and control plate. • (B) The same methodology as (A) was performed, but the cellulose disk plates additionally included the supernatant of a C. acnes culture that was grown on a substrate comprising 20% glycerol. […]

[3] = tested on: P. aeruginosa; assay: Planktonic growth of nasal clinical isolates (OD 595 nm, 24 h); type: cell-based
Protocol: as §1, §2, §3

[4] = tested on: S. aureus; assay: as above; type: cell-based
Protocol: as §1, §2, §3

[5] = tested on: C. accolens; assay: as above; type: cell-based; settings: NB and BHI
Protocol: as §1, §2, §3

[6] = tested on: P. aeruginosa; assay: Cellulose disk on nutrient agar survival test (Example 6); type: cell-based; settings: 48 h aerobic
Text: as §4, with “Following incubation, the cellulose disks were each aseptically removed from the agar surface and the microorganism contents of the cellulose disks were individually extracted using sterile phosphate-buffered saline solution. Each of the resulting microorganism suspensions were serially diluted 1:10 in sterile phosphate-buffered saline solution and 1.000 mL of the appropriate dilutions were plated in singlet to sterile growth media appropriate for the target test microorganism.” left out

[7] = tested on: commensal and pathogenic bacterial isolates; assay: Planktonic growth of nasal clinical isolates (OD 595 nm, 24 h), all isolates; type: cell-based
Protocol: as §1, §2, §3

[8] = tested on: C. pseudodiphtheriticum; assay: Planktonic growth of nasal clinical isolates (OD 595 nm, 24 h); type: cell-based, Corynebacterium pseudodiphtheriticum
Protocol: as §1, §2, §3

[9] = tested on: C. propinquum; assay: as above; type: cell-based, Corynebacterium propinquum
Protocol: as §1, §2
Glycerol at 20% was prepared by dilution in nutrient broth (NB) media. Glycerol treatments at 20% concentrations were prepared in a 96-well microtitration plate containing 50 μL NB. A single colony of bacterial isolates such as C. accolens, C. propinquum, C. pseudodiptheriticum, S. epidermidis, S. aureus and P. aeruginosa from overnight cultures was suspended with 0.9% saline (aqueous NaCl) to McFarland standard of 0.5 and diluted 1:100 in NB growth media. […] After incubation, the planktonic bacterial growth was determined by measuring the optical density (OD) at 595 nm using microplate absorbance reader (iMark™, BIO-RAD). […]

[10] = tested on: C. acnes; assay: Cellulose disk on nutrient agar survival test (Example 5); type: cell-based; settings: 48 hours incubation, anaerobic; glycerol as 20% in water
Text: The growth of C. acnes in the presence of glycerol, chitosan-dextran polymer (CS-DA), and a combination of glycerol and chitosan-dextran polymer (CS-DA-GLY) was investigated according to the following methodology: • Cellulose disks (approximately 1 cm in diameter) pre-soaked in C. acnes culture were placed on the surface of sterile nutrient agar plates. A test substance was placed on top of the soaked disks to allow contact with both the nutrient agar and a test substance. An untreated control agar plate contained only the soaked cellulose disk, with no test substance applied. The test substances were: (1) 20% glycerol in water; (2) a composition comprising aldehyde-derivatised dextran polymer cross linked with N-succinyl chitosan polymer, an aqueous phosphate buffer and approximately 20% v/v glycerol, prepared according to the description above in Example 2 (herein referred to as CS-DA-GLY); and (3) a composition comprising aldehyde-derivatised dextran polymer cross linked with N-succinyl chitosan polymer, and an aqueous phosphate buffer (herein referred to as CS-DA). That is, the composition of test substances (2) and (3) differ only in the presence and absence of glycerol. […] Following incubation for 112 hours 5 minutes at conditions appropriate for the microorganism, the surviving test microorganisms were recorded for each test and control plate.

[11] = 20% glycerol, Nutrient Broth, 24 hours
[12] = 20% v/v glycerol, media (NB and BHI)
[13] = test set A, no C. acnes supernatant, glycerol as 20% v/v in water

## OCC(O)CO [glycerol]
[1]; [11]
  planktonic growth of S. epidermidis vs untreated growth control: significantly inhibit; also recorded: significantly reduced
[1]; [12]
  growth of S. epidermidis compared to control: inhibited
[1]; 40% v/v glycerol, NB and BHI
  growth of S. epidermidis: significant inhibitory effect
[2]; [13]
  growth of S. aureus compared to control: decrease
[2]; test set B, comprising C. acnes supernatant (method b251: culture grown on 20% glycerol substrate)
  growth of S. aureus compared to control: decrease
[2]; test set C, comprising C. acnes supernatant (method b251: glycerol-free substrate; b254: grown in the presence of glycerol)
  growth of S. aureus compared to control: decrease
[3]; [11]
  planktonic growth of P. aeruginosa vs untreated growth control: significantly inhibit; also recorded: significantly reduced
[3]; [12]
  growth of P. aeruginosa compared to control: inhibited
[3]; 40% v/v glycerol, NB and BHI
  growth of P. aeruginosa: significant inhibitory effect
[4]; [11]
  planktonic growth of S. aureus vs untreated growth control: significantly reduced; also recorded: significantly inhibit
[4]; [12]
  growth of S. aureus compared to control: inhibited
[4]; 40% v/v glycerol, NB and BHI
  growth of S. aureus: significant inhibitory effect
[5]; 20% v/v glycerol
  growth of C. accolens compared to control: either unaffected or promoted
[5]; 40% v/v glycerol
  growth of C. accolens: significant inhibitory effect
[6]; [13]
  growth of P. aeruginosa compared to control: decrease
[6]; test set C, with C. acnes supernatant (grown in the presence of glycerol)
  growth of P. aeruginosa compared to control: much more substantial decrease; also recorded: reduction
[7]; 20% glycerol, BHI broth
  growth of commensal and pathogenic bacterial isolates: significantly inhibit
[7]; 40% glycerol, BHI broth
  growth of commensal and pathogenic bacterial isolates: significantly inhibit
[7]; 40% glycerol, NB
  growth of commensal and pathogenic bacterial isolates: significantly inhibit
[8]; [11]
  planktonic growth of C. pseudodiphtheriticum vs untreated growth control: significantly inhibit; also recorded: significantly reduced
[8]; [12]
  growth of C. pseudodiphtheriticum compared to control: inhibited
[8]; 40% v/v glycerol, NB and BHI
  growth of C. pseudodiphtheriticum: significant inhibitory effect
[9]; [12]
  growth of C. propinquum compared to control: inhibited
[9]; 40% v/v glycerol, NB and BHI
  growth of C. propinquum: significant inhibitory effect
[10]
  growth (percent survival) of C. acnes compared to untreated control: supported
